Laboratory results published in patent US20230219251A1, “MULTIFUNCTIONAL WOOD PRESERVATIVE COMPOSITION AND WOOD PRESERVATION TREATMENT METHOD USING THE SAME” (KOREA INSTITUTE OF SCIENCE AND TECHNOLOGY, priority 2022, published 2023).

Legend:
[1] = cited from earlier work
rot fungi = settings: cited from earlier work
wood-boring insects = settings: cited from earlier work
Coptotermes formosanus = settings: cited from earlier work
Reticulitermes speratus = settings: cited from earlier work
[2] = pH of the prepared solutions; assay type: physicochemical
Method: (§1) Specifically, 150 g of BA was added, and HH was added at ratios shown in Table 1 after addition of water (distilled water), followed by reaction at a temperature of each reaction solution of 60° C. The termination time point of the reaction was when the solution became a transparent solution. The degree of precipitation was analyzed one day after the completion of the reaction.
Hydrazine borates (#7 to #11) with different BAE levels were synthesized by varying the amounts of BA and HH. Specifically, BA was added at proportions shown in Table 3 below, and water was added and HH was added, followed by reaction at a temperature of each reaction solution of 60° C. Then, the termination time point of the reaction was when the solution became a transparent solution. The degree of precipitation was analyzed one month after the completion of the reaction.

[3] = 30 wt % BAE; one day after completion of the reaction
Method: Hydrazine borates (#1 to #6) were synthesized by varying the amounts of boric acid (BA) and hydrazine hydrate (HH) while fixing the boric acid equivalent (BAE) level to 30 wt %.
as §1

[4] = Test on dilution stability
Method: The precipitation or lack thereof over time was visually observed while the tube was shaken every 6 hours, and the results are shown in Table 14.

[5] = reaction solutions of Example 1, 30 wt % BAE
[6] = reaction solutions of Example 2, 40-71 wt % BAE

N.O=BOB1OB2OB(O)OB(O1)O2 [ammonium pentaborate (APB), ammonium pentaborate]
BAE at room temperature [1]: 10.6 % BAE

O.O.O.O.O=BOB1OB(OB=O)OB2OB([O-])OB([O-])OB(O1)O2.[Na+].[Na+] [disodium octaborate tetrahydrate (DOT), disodium octaborate tetrahydrate]
BAE at room temperature [1]: 11.6 % BAE

borate
Toxicity titer (rot fungi): 1.0-1.5 kg/m^3 BAE
Toxicity titer (wood-boring insects): 1.2 kg/m^3 BAE
Toxicity titer (Coptotermes formosanus): 3.0 kg/m^3 BAE
Toxicity titer (Reticulitermes speratus): < 3.0 kg/m^3 BAE

dilithium octaborate [dilithium octaborate (LOB)]
BAE at room temperature [1]: 24.1 % BAE

hydrazine borate [#1]
pH [2, 5]: 9.50
Appearance of the solution / precipitate formation [3]: transparent solutions

hydrazine borate [#2]
pH [2, 5]: 8.42
Appearance of the solution / precipitate formation [3]: transparent solutions

hydrazine borate [#3]
pH [2, 5]: 7.45

hydrazine borate [#4]
pH [2, 5]: 6.13

hydrazine borate [#5]
pH [2, 5]: 6.33

hydrazine borate [#6]
pH [2, 5]: 6.59

hydrazine borate [#7]
pH [2, 6]: 8.45

hydrazine borate [#8]
pH [2, 6]: 8.42
Precipitation over time ([4]; diluted 1:1 in distilled water, 1 Days): N
Precipitation over time ([4]; diluted 1:1 in distilled water, 3 Days): N
Precipitation over time ([4]; diluted 1:1 in distilled water, 5 Days): N
Precipitation over time ([4]; diluted 1:1 in distilled water, 7 Days): N
Precipitation over time ([4]; diluted 2:1 in distilled water, 1 Days): N
Precipitation over time ([4]; diluted 2:1 in distilled water, 3 Days): N
Precipitation over time ([4]; diluted 2:1 in distilled water, 5 Days): N
Precipitation over time ([4]; diluted 2:1 in distilled water, 7 Days): N
Precipitation over time ([4]; diluted 3:1 in distilled water, 1 Days): N
Precipitation over time ([4]; diluted 3:1 in distilled water, 3 Days): N
Precipitation over time ([4]; diluted 3:1 in distilled water, 5 Days): N
Precipitation over time ([4]; diluted 3:1 in distilled water, 7 Days): N

hydrazine borate [#9]
pH [2, 6]: 8.41

hydrazine borate [#10]
pH [2, 6]: 8.40

hydrazine borate [#11]
pH [2, 6]: 8.37
